Reference: US20060281768A1, “THIENOPYRIMIDINE AND THIENOPYRIDINE KINASE MODULATORS” (priority 2005, published 2006)
pIC50: −log10 of the molar value.

Assays:
[1] = target: T1, FLT3 571-993 (Homo sapiens, UniProt P36888); assay: FLT3 Fluorescence Polarization Kinase Assay; type: biochemical; conditions: 10 nM FLT3 571-993, 150 uM ATP, 30 minutes; uncertainty +10%
T1 construct: 10 nM FLT3 571-993, 20 ug/mL poly Glu4Tyr
T1 sequence (P36888 571-993): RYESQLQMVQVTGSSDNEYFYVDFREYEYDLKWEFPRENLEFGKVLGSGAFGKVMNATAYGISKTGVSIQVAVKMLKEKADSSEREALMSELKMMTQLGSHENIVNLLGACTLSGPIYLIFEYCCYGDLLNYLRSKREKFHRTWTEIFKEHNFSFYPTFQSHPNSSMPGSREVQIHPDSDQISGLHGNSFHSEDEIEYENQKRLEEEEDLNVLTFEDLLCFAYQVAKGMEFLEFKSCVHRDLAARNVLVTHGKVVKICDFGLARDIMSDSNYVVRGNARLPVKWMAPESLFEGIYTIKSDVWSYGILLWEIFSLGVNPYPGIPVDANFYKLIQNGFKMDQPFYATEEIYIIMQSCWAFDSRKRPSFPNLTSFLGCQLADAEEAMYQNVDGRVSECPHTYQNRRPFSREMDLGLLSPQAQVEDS
Experimental: The FLT3 FP assay utilizes the fluorescein-labeled phosphopeptide and the anti-phosphotyrosine antibody included in the Panvera Phospho-Tyrosine Kinase Kit (Green) supplied by Invitrogen. When FLT3 phosphorylates poly Glu4Tyr, the fluorescein-labeled phosphopeptide is displaced from the anti-phosphotyrosine antibody by the phosphorylated poly Glu4Tyr, thus decreasing the FP value. The FLT3 kinase reaction is incubated at room temperature for 30 minutes under the following conditions: 10 nM FLT3 571-993, 20 ug/mL poly Glu4Tyr, 150 uM ATP, 5mM MgCl2, 1% compound in DMSO. The kinase reaction is stopped with the addition of EDTA. The fluorescein-labeled phosphopeptide and the anti-phosphotyrosine antibody are added and incubated for 30 minutes at room temperature.
All data points are an average of triplicate samples. Inhibition and IC50 data analysis was done with GraphPad Prism using a non-linear regression fit with a multiparamater, sigmoidal dose-response (variable slope) equation.

[2] = tested on: MV4-11 cells; assay: Growth inhibition of MV4-11 cells (CellTiterGlo); type: cell-based; conditions: Homo sapiens, 72 hours, uncertainty +20%
Experimental: FLT3 specific growth inhibition was measured in the leukemic cell line MV4-11 (ATCC Number: CRL-9591). […] MV4-11 cells cannot grow and survive without active FLT31TD.
To measure proliferation inhibition by test compounds the luciferase based CellTiterGlo reagent (Promega) was used. Cells are plated at 10,000 cells per well in 100ul of in RPMI media containing penn/strep, 10% FBS and lng/ml GM-CSF or 1 ng/ml IL-3 for MV4-11 and Baf3 cells respectively.
Compound dilutions or 0.1% DMSO (vehicle control) are added to cells and the cells are allowed to grow for 72 hours at standard cell growth conditions (37° C., 5% CO2). Total cell growth is quantified as the difference in luminescent counts (relative light units, RLU) of cell number at Day 0 compared to total cell number at Day 3 (72 hours of growth and/or compound treatment). One hundred percent inhibition of growth is defined as an RLU equivalent to the Day 0 reading. Zero percent inhibition is defined as the RLU signal for the DMSO vehicle control at Day 3 of growth. All data points are an average of triplicate samples. […] Inhibition and IC50 data analysis was done with GraphPad Prism using a non-linear regression fit with a multiparamater, sigmoidal dose-response (variable slope) equation.
MV-411 cells expressed the FLT3 internal tandem duplication mutation, and thus were entirely dependent upon FLT3 activity for growth. […] In contrast, the Baf3 cell proliferations is driven by the cytokine IL-3 and these cells are used as a non-specific toxicity control for test compounds.

## CC(C)c1ccc(NC(=O)OC2CCN(c3ncnc4sccc34)CC2)cc1 [Compound 1, (4-Isopropyl-phenyl)-carbamic acid 1-thieno[2,3-d]pyrimidin-4-yl-piperidin-4-yl ester]
[1]
  pIC50: 6.99
[2]
  pIC50: 5.14

## CC(C)Oc1ccc(NC(=O)OC2CCN(c3ncnc4sccc34)CC2)cc1 [Compound 2, (4-Isopropoxy-phenyl)-carbamic acid 1-thieno[2,3-d]pyrimidin-4-yl-piperidin-4-yl ester]
[1]
  pIC50: 5.68
[2]
  pIC50: < 5.00

## CC(C)c1ccc(NC(=O)OC2CCN(c3ncnc4sccc34)C2)cc1 (stereo not drawn) [Compound 3, (4-Isopropyl-phenyl)-carbamic acid 1-thieno[2,3-d]pyrimidin-4-yl-pyrrolidin-3-yl ester]
[1]
  pIC50: 6.64
[2]
  pIC50: 5.62

## CC(C)Oc1ccc(NC(=O)OC2CCN(c3ncnc4sccc34)C2)cc1 (stereo not drawn) [Compound 4, (4-Isopropoxy-phenyl)-carbamic acid 1-thieno[2,3-d]pyrimidin-4-yl-pyrrolidin-3-yl ester]
[1]
  pIC50: 6.12
[2]
  pIC50: < 5.00

## CC(C)Oc1ccc(NC(=O)OC2CCN(c3ncnc4ccsc34)C2)cc1 (stereo not drawn) [Compound 6, (4-Isopropoxy-phenyl)-carbamic acid 1-thieno[3,2-d]pyrimidin-4-yl-pyrrolidin-3-yl ester]
[1]
  pIC50: 6.68
[2]
  pIC50: 5.19

## CC(C)c1ccc(NC(=O)OC2CCN(c3ncnc4ccsc34)CC2)cc1 [Compound 7, (4-Isopropyl-phenyl)-carbamic acid 1-thieno[3,2-d]pyrimidin-4-yl-piperidin-4-yl ester]
[1]
  pIC50: 6.85
[2]
  pIC50: 5.37

## CC(C)Oc1ccc(NC(=O)OC2CCN(c3ncnc4ccsc34)CC2)cc1 [Compound 8, (4-Isopropoxy-phenyl)-carbamic acid 1-thieno[3,2-d]pyrimidin-4-yl-piperidin-4-yl ester]
[1]
  pIC50: 5.52
[2]
  pIC50: 5.44

## CC(C)Oc1ccc(NC(=O)NC2CCN(c3ncnc4sccc34)C2)cc1 (stereo not drawn) [Compound 10, 1-(4-Isopropoxy-phenyl)-3-(1-thieno[2,3-d]pyrimidin-4-yl-pyrrolidin-3-yl)-urea]
[1]
  pIC50: 6.44
[2]
  pIC50: 5.44

## CC(C)Oc1ccc(NC(=O)NC2CCN(c3ncnc4ccsc34)C2)cc1 (stereo not drawn) [Compound 12, 1-(4-Isopropoxy-phenyl)-3-(1-thieno[3,2-d]pyrimidin-4-yl-pyrrolidin-3-yl)-urea]
[1]
  pIC50: 6.53
[2]
  pIC50: 5.60

## O=C(Nc1ccc(N2CCOCC2)cc1)NC1CCN(c2ncnc3ccsc23)C1 (stereo not drawn) [Compound 14, 1-(4-Morpholin-4-yl-phenyl)-3-(1-thieno [3,2-d]pyrimidin-4-yl-pyrrolidin-3-yl)-urea]
[2]
  pIC50: < 5.30

## O=C(Nc1ccc(C2CCCCC2)cc1)NC1CCN(c2ncnc3ccsc23)C1 (stereo not drawn) [Compound 16, 1-(4-Cyclohexyl-phenyl)-3-(1-thieno [3,2-d]pyrimidin-4-yl-pyrrolidin-3-yl)-urea]
[2]
  pIC50: 5.28

## O=C(Nc1ccc(Br)cc1)NC1CCN(c2ncnc3ccsc23)C1 (stereo not drawn) [Compound 17, 1-(4-Bromo-phenyl)-3-(1-thieno [3,2-d]pyrimidin-4-yl-pyrrolidin-3-yl)-urea]
[2]
  pIC50: 5.72

## O=C(Nc1ccc(OC2CCC2)nc1)NC1CCN(c2ncnc3ccsc23)CC1 [Compound 20, 1-(6-Cyclobutoxy-pyridin-3-yl)-3-(1-thieno [3,2-d]pyrimidin-4-yl-piperidin-4-yl)-urea]
[2]
  pIC50: 5.82

## O=C(Nc1ccc(C2CCCCC2)cc1)NC1CCN(c2ncnc3ccsc23)CC1 [Compound 21, 1-(4-Cyclohexyl-phenyl)-3-(1-thieno [3,2-d]pyrimidin-4-yl-piperidin-4-yl)-urea]
[2]
  pIC50: 5.85

## O=C(Nc1ccc(Oc2ccccc2)cc1)NC1CCN(c2ncnc3ccsc23)CC1 [Compound 22, 1-(4-Phenoxy-phenyl)-3-(1-thieno [3,2-d]pyrimidin-4-yl-piperidin-4-yl)-urea]
[2]
  pIC50: 5.42

## O=C(Nc1ccc(N2CCCC2)cc1)NC1CCN(c2ncnc3ccsc23)CC1 [Compound 23, 1-(4-Pyrrolidin-1-yl-phenyl)-3-(1-thieno [3,2-d]pyrimidin-4-yl-piperidin-4-yl)-urea]
[2]
  pIC50: 5.41

## O=C(Nc1ccc(N2CCOCC2)cc1)NC1CCN(c2ncnc3ccsc23)CC1 [Compound 24, 1-(4-Morpholin-4-yl-phenyl)-3-(1-thieno[3,2-d]pyrimidin-4-yl-piperidin-4-yl)-urea]
[2]
  pIC50: < 5.30

## O=C(Nc1ccc(N2CCOCC2)cc1)OC1CCN(c2ncnc3ccsc23)C1 (stereo not drawn) [Compound 28, (4-Morpholin-4-yl-phenyl)-carbamic acid 1-thieno[3,2-d]pyrimidin-4-yl-pyrrolidin-3-yl ester]
[2]
  pIC50: 5.68
